According to US20080242594A1, “Methods for Promoting Stem Cell Proliferation and Survival” (priority 2005, published 2008):

Columns and labels:
[1] = test system: E13.5 cortical stem cells; experiment: Differentiation potential of embryonic CNS stem cells after Notch ligand treatment; type: cell-based, mouse; details: 5 days treatment in bFGF2 20 ng/ml, then mitogen withdrawal (WD) 3 days
Method: To test whether Notch activation promoted differentiation or fate commitment, these cultures were treated with either Jagged-1 or Delta-4 for 5 days, […] The proportion of cells expressing genes characteristic of the stem or differentiated cells was determined (FIG. 8A).
The multipotentiality of treated cells was tested more rigorously by plating them at clonal density (50 cells/cm^2). Following five days of Delta-4+FGF2 treatment and 5 days of differentiation, 65% of the clones contained GFAP+, TUJ1+, and CNPase+ cells (FIG. 8B).

Adult SVZ CNS SC = experiment: Multi-potentiality of adult CNS stem cells after mitogen withdrawal; type: cell-based, rat; details: FGF2 20 ng/ml 7 days, mitogen withdrawal 7 days
Method: Very little protein or mRNA were detected outside the SVZ (FIG. 4g). Adult CNS stem cells can be cultured as a monolayer in vitro (FIG. 4h) and they show similar responses to extracellular signals that regulate stem cell differentiation upon withdrawal of the mitogen that sustains the undifferentiated state (Johe et al., Genes Dev 10:3129-40, 1996). To ask if Notch activation promotes survival in rat adult SVZ cultures, isolated cells were grown in the presence of FGF2 with and without Delta-4 for one week. […] When FGF2 was withdrawn for a week, cells at clonal density generated all three CNS lineages (FIG. 8C, Table 4).

HSF6 hES cells = experiment: hES single cell plating efficiency, HSF-6; type: cell-based, human; details: singly dissociated cells on MEFs, treated daily for one week
Description: The human ES cell lines HSF-6 (University of California, San Francisco; NIH # UC06, Passage 38-120) and H1 and H9 (WiCell Research Institute, NIH # WA01 and […]) were maintained on mouse embryonic fibroblasts (MEF) according to the suppliers' protocols. Immunocytochemistry and FACS analysis for the expression of Oct4 and SSEA4 and SKY karyotyping established that the starting cells are undifferentiated and have a normal set of chromosomes. For single cell survival experiments, hES colonies were harvested after treatment with 1.5 mg/ml collagenase type IV (Invitrogen), separated from the MEF feeder cells by repeated washing by gravity, gently triturated to break up colonies into small aggregates, further dissociated into a single cell solution by trypsination (0.05% trypsin/0.04% EDTA) and transferred on MEF feeder cells at a density of 10000 cells/ml. Oct-4 positive colonies were counted six days after plating. […]
The pro-survival effects of activation of Notch and inhibition of JAK was tested on HSF-6 (NIH code UC06, http://escell.ucsf.edu), H1 (NIH code WA01, www.wicell.org) and H9 (NIH code WA09, www.wicell.org) hES cells. Singly dissociated hES cells were plated on mouse embryo fibroblasts (MEFs), treated daily for one week and colony numbers counted. […]

adult rats = experiment: Intraventricular infusion in normal adult rats, BrdU labeled cells; type: in vivo, rat
Method: In-vivo Experiments: All drugs were infused over one week using an Alzet osmotic pump (model 2001 delivering at a rate of 1 μl/hr for seven days). Briefly, an intracerebral cannula connected to the pump was inserted into the right lateral ventricle using the following stereotaxic coordinates: bregma AP +0, Lateral −1.5 mm dorso-ventral 3.3 mm. Animals received IP injection of the tracer BrdU (50 mg/kg) every 12 hours for 5 days beginning on day one post-operatively to label dividing cells.
(§1) Immuno-positive cells were analyzed by confocal microscopy counted using a non-biased system on slides obtained from homologous coronal slices containing the infarct of each animal at the position between +0.2 and −3.8 mm from the center of the bregma according to stereotaxic coordinates. Cells were enumerated in […] regions of interest, on both the ipsilateral and contralateral hemispheres (to cannula, or cannula and ischemic focus): subventricular zone (SVZ), corpus callosum and white matter and the peri-infarct cortex.
The effect of intraventricular administration of Delta-4 was studied in adult rats. As in other tissues, the numbers of stem cells in the adult CNS are precisely controlled. […] In vivo manipulations were designed to ask if Notch ligands can act alone or substantially alter the effect of FGF2 on the numbers of proliferating cells in the SVZ of the normal brain. Animals (N=5-6 per treatment) were fitted with a mini-osmotic pump administering artificial cerebrospinal fluid (ACSF, vehicle), FGF2, Delta-4, or a combination FGF2+Delta-4 for one week into the ventricles of three-month old rats. Animals were also given twice-daily injections of bromodeoxyuridine (BrdU) from post-op days two to six to label cells generated during this time window. Two groups of animals were analyzed at day 7 and day 45 relative to the initiation of protein delivery. Delta-4 doses were chosen to provide a roughly equal concentration in the rat adult cerebrospinal fluid as in the cell culture medium of our in vitro experiments.

[2] = test system: spontaneously hypertensive rats (SHR) with permanent middle cerebral artery occlusion; experiment: Focal ischemia (PMCAO) in rats with intraventricular infusion; type: in vivo, rat; details: stroked animals
Method: For the induction of focal ischemia in rats, male spontaneously hypertensive rats (SHR) underwent permanent middle cerebral artery occlusion (PMCAO) (Leker et al., Stroke 33:1085-92, 2002). This is a highly reproducible model of focal irreversible cerebral ischemia that results in isolated fronto-parietal cortical injury. For motor disability evaluations, animals were analyzed with a standard motor disability protocol (Leker et al., Stroke 34:2000-6, 2003).
as §1
There is growing evidence for an endogenous repair process following injury to the telencephalon. […]
Treatment with Notch ligand with or without FGF2 increased the number of cells that were BrdU labeled in the days immediately following the injury and these cells survived for an additional 5 weeks (FIG. 6d). […] The behavior of animals in the 45 day groups were assessed at the indicated time points.

STAT3 = STAT3 phosphorylation (Ser727, Tyr705) immunoblot in CNS stem cells; type: cell-based, mouse
Description: Ligands that activate JAK/STAT signaling promote astrocytic differentiation of CNS stem cells (Johe et al., Genes Dev 10:3129-40, 1996; Raj an et al., J Neurosci 18:3620-9, 1998; Bonni et al., Science 278:477-83, 1997; Song et al., Nat Neurosci 7:229-35, 2004; He et al., Nat Neurosci 8:616-625, 2005). When applying CNTF to CNS stem cells it was noted that low concentrations of CNTF stimulated survival but not expression of astrocyte specific genes. This is consistent with previous observations of Akt phosphorylation downstream of gp130 activation (Taga et al., Annu Rev Immunol 15:797-819, 1997). […] At high concentrations (20 ng/ml) the phosphorylation of Tyr705 can be blocked by an inhibitor of JAK while allowing a CNTF-induced increase in Ser727 phosphorylation (FIG. 2B) (Thompson et al., Bioorg Med Chem Lett 12:1219-23, 2002).
CNTF was used as a positive control; CNTF, induced the phosphorylation on both sites. With both CNTF and Notch activation, phosphorylation peaked at around 30 min. STAT3 phosphorylation on Ser727 following Notch activation was sensitive to the γ-secretase inhibitor DAPT (FIG. 2e). […] In contrast to CNTF, no Tyr705 phosphorylation was detected at any of the doses of Notch receptor ligands.
It was determined that insulin also maintains phosphorylation of serine 727 in STAT3 in foetal neural stem cell cultures.

Notch1 = experiment: Notch activation (Notch1IC / Notch ICD) immunocytochemical detection; type: cell-based, mouse
Description: Antibodies were used that specifically bind: Notch1IC (Chemicon, 5352), GFP (Molecular Probes, A11122), Oct3/4 (Santa Cruz, sc-5279), SSEA1 and SSEA4 (Developmental Studies HybridomaBank), Tra-1-60 (Chemicon, MAB4360), Tra-1-81 (Chemicon, MAB4381), human nestin (Chemicon, MAB5326), Sox-1 (Gift from Dr. R Lovell-Badge), TH (Pel-Freez, P40101-0), Tuj1 (Covance, MMS-435P), rat nestin (McKay Lab), GFAP (Dako, z0334), CNPase (Chemicon, MAB326), BrdU (Accurate, H5903), DCX (Santa Cruz, sc-8066), Sox2 (R&D, MAB2018), Hu (Molecular Probes, A21271).
To assay for Notch activation, cultures were treated with the Notch ligands for 1 hour and Notch1 activation was detected by immunocytochemical staining of Notch1IC (FIG. 1b).
(§2) It was determined that insulin facilitates Notch cleavage using immunocytochemical detection.

IGF1/insulin receptor = IGF1/insulin receptor phosphorylation in foetal NSC cultures; type: cell-based, mouse
Method: Specifically, D114 induced the phosphorylation of IGF1/insulin receptor. Peak phosphorylation occurred at 2-5 minutes.
as §2

[3] = test system: mouse fetal central nervous system stem cell cultures; experiment: Survival of fetal CNS stem cell cultures with insulin and Dll4; type: cell-based
Method: (§3) As there was a tight correlation between the Notch survival pathway and Hes3, it was investigated as to whether Hes3 is a mediator of the Notch pro-survival signalling. It was determined that both insulin and Notch activation promote the survival of foetal and adult neural stem cell cultures and their effects are additive (Tables 8-9).

[4] = test system: rat adult subventricular zone central nervous system stem cell cultures; experiment: Survival of adult SVZ CNS stem cell cultures with insulin and Dll4; type: cell-based
Method: as §3

[5] = test system: adult rat subventricular zone (SVZ); experiment: Dividing (BrdU+) cells in SVZ after single lateral ventricle injection; type: in vivo; details: BrdU for 3 days, sacrificed on the 5th day
Method: In vivo, Notch and insulin also increase the number of dividing cells in the adult rat subventricular zone (SVZ) 5 days after a single injection It was determined that Notch and insulin co-operate to promote new (BrdU+) cells in vivo. Specifically, the reagents infused in the lateral ventricle of adult rats as a single injection. The rats were then given BrdU for 3 days and sacrificed on the 5th day (Table 10).

[6] = Insulin withdrawal, 2 days and then treat for 1 h

Q: “FGF2: fibroblast growth factor FGF2 (233-FB) from R&D” was tested. Which “% Glia (GFAP)” value [1] did it give?
A: 49.53 ± 4.79%

Q: What about the “% Neurons (TUJ1)” value [1] of the same substance?
A: 42.37 ± 6.85%

Q: What about the “% Oligodendrocytes (CNPase)” value [1] of the same substance?
A: 9.12 ± 2.82%

Q: And the “% Glia (GFAP)” value (Adult SVZ CNS SC)?
A: 51.8 ± 10.3%

Q: And the “% Neurons (TUJ1)” value (Adult SVZ CNS SC)?
A: 43.3 ± 10.7%

Q: And the “% Oligodendrocytes (CNPase)” value (Adult SVZ CNS SC)?
A: 9.4 ± 2.6%

Q: What about the “plating efficiency relative to FGF2 controls” value (HSF6 hES cells) of the same substance?
A: 100%±15.35

Q: And the “number of proliferating cells / BrdU incorporation” value (adult rats; day 7, contralateral site)?
A: no significant effect over vehicle

Q: And the “number of BrdU labeled cells in SVZ, corpus callosum and cortex” value (adult rats; day 7, hemisphere ipsilateral to the cannula)?
A: increased the number of BrdU labeled cells

Q: What about the “size of the injury” value [2] of the same substance?
A: 21.0%±3.5 % of hemisphere volume

Q: For “Ins: insulin in the culture medium or infused”, which STAT3-S727 (STAT3; +Ins, 2 days) is on record?
A: High

Q: And the STAT3-Y705 (STAT3; +Ins, 2 days)?
A: No signal

Q: What about the STAT3-S727 (STAT3; −Ins, 2 days→ +Ins, 1 hour) of the same substance?
A: High

Q: And the STAT3-Y705 (STAT3; −Ins, 2 days→ +Ins, 1 hour)?
A: No signal

Q: And the “Notch ICD” value (Notch1; +Ins, no withdrawal)?
A: High

Q: What about the “Notch ICD” value (Notch1; [6]) of the same substance?
A: High

Q: And the “pIGF1 (19H7)” value (IGF1/insulin receptor; +Ins, no withdrawal)?
A: High

Q: And the “pIGF1 (3021)” value (IGF1/insulin receptor; +Ins, no withdrawal)?
A: High

Q: What about the “pIGF1 (19H7)” value (IGF1/insulin receptor; [6]) of the same substance?
A: High

Q: What about the “pIGF1 (3021)” value (IGF1/insulin receptor; [6]) of the same substance?
A: High

Q: And the “Cell #” value [3]?
A: Medium

Q: What about the “Cell #” value [4] of the same substance?
A: Medium

Q: What about the “Cell #” value [5] of the same substance?
A: Medium
